{
  "source": "ChEMBL document CHEMBL5360538",
  "about": "“Recent updates on 1,2,3-triazole-containing hybrids with in vivo therapeutic potential against cancers: A mini-review” (Eur J Med Chem, 2023)",
  "key": {"NCI-H460": {"tested_on": "NCI-H460", "assay": "Antiproliferative activity against human NCI-H460 cells assessed as inhibition of cell growth by MTT assay", "assay_type": "functional, cell-based"}, "NCI-H1975": {"tested_on": "NCI-H1975", "assay": "Antiproliferative activity against human NCI-H1975 cells assessed as inhibition of cell growth by MTT assay", "assay_type": "functional, cell-based"}, "PC-9 [1]": {"tested_on": "PC-9", "assay": "Antiproliferative activity against human PC-9 cells assessed as inhibition of cell growth by MTT assay", "assay_type": "functional, cell-based"}, "PC-9 [2]": {"tested_on": "PC-9", "assay": "Antitumor activity against human PC-9 cells xenografted in NSG mouse model assessed as inhibition of tumor growth at 25 mg/kg, ip qd administered every day for 7 consecutive days relative to control", "assay_type": "functional", "conditions": "PC-9, 168 h, time 7 day"}, "4T1": {"tested_on": "4T1", "assay": "Antitumor activity against mouse 4T1 cells overexpressing IDO1 implanted in BALB/c mouse model assessed as inhibition of tumor growth at 25 mg/kg, ip qd administered every day for 8 consecutive days and measured after 14 days relative to control", "assay_type": "functional", "conditions": "4T1, 336 h, time 14 day"}, "A549 [3]": {"tested_on": "A549", "assay": "Antiproliferative activity against human A549 cells assessed as inhibition of cell growth by MTT assay", "assay_type": "functional, cell-based"}, "B16-F10": {"tested_on": "B16-F10", "assay": "Antitumor activity against mouse B16-F10 cells implanted in melanoma mouse model assessed as inhibition of tumor growth at 20 mg/kg, po relative to control", "assay_type": "functional"}, "NCI-H211": {"tested_on": "NCI-H211", "assay": "Antiproliferative activity against human NCI-H211 cells assessed as reduction in cell viability by MTS assay", "assay_type": "functional, cell-based"}, "MDA-MB-231 [4]": {"tested_on": "MDA-MB-231", "assay": "Antiproliferative activity against human MDA-MB-231 cells assessed as reduction in cell viability by MTS assay", "assay_type": "functional, cell-based"}, "MDA-MB-231 [5]": {"tested_on": "MDA-MB-231", "assay": "Antiproliferative activity against drug-sensitive human MDA-MB-231 cells assessed as inhibition of cell growth by MTT assay", "assay_type": "functional, cell-based"}, "SK-BR-3": {"tested_on": "SK-BR-3", "assay": "Antiproliferative activity against drug-sensitive human SK-BR-3 cells assessed as inhibition of cell growth by MTT assay", "assay_type": "functional, cell-based"}, "MCF7 [6]": {"tested_on": "MCF7", "assay": "Antiproliferative activity against drug-sensitive human MCF7 cells assessed as inhibition of cell growth by MTT assay", "assay_type": "functional, cell-based"}, "[7]": {"assay": "Antiproliferative activity against human Trastuzumab-resistant BT-474 cells assessed as inhibition of cell growth by MTT assay", "assay_type": "functional, cell-based, Trastuzumab-resistant BT-474 cell"}, "[8]": {"assay": "Plasma clearance in Albino mouse at 1.0 mg/kg, iv", "assay_type": "ADME, organism-based"}, "[9]": {"assay": "Antiproliferative activity against human Tamoxifen-resistant MCF7 cells assessed as inhibition of cell growth by MTT assay", "assay_type": "functional, cell-based"}, "BT-474": {"tested_on": "BT-474", "assay": "Antiproliferative activity against drug-sensitive human BT-474 cells assessed as inhibition of cell growth by MTT assay", "assay_type": "functional, cell-based"}, "[10]": {"assay": "Elimination half life in Albino mouse plasma at 1.0 mg/kg, iv", "assay_type": "ADME, organism-based", "conditions": "read-out: beta t1/2 (converted)"}, "[11]": {"assay": "AUC(0 to t) in Albino mouse at 1.0 mg/kg, iv", "assay_type": "ADME, organism-based", "parameters": "dose 1 mg/kg, route iv", "conditions": "in vivo"}, "MCF7 [12]": {"tested_on": "MCF7", "assay": "Antitumor activity against human MCF7 cells xenografted in mouse assessed as tumor growth inhibition by measuring T/C ratio at 25 mg/kg, iv", "assay_type": "functional"}, "SGC-7901 [13]": {"tested_on": "SGC-7901", "assay": "Antiproliferative activity against human SGC-7901 cells assessed as inhibition of cell growth by MTT assay", "assay_type": "functional, cell-based"}, "SGC-7901 [14]": {"tested_on": "SGC-7901", "assay": "Antiproliferative activity against human SGC-7901 cells assessed as inhibition of cell growth incubated for 72 hrs by MTT assay", "assay_type": "functional, cell-based", "conditions": "SGC-7901, 72 h"}, "KYSE-150 cell line": {"tested_on": "KYSE-150 cell line", "assay": "Antiproliferative activity against human KYSE-150 cells assessed as inhibition of cell growth incubated for 72 hrs by MTT assay", "assay_type": "functional, cell-based", "conditions": "KYSE-150, 72 h, pooled result: one value given for 5 cell lines, strains, targets or settings"}, "A549 [15]": {"tested_on": "A549", "assay": "Antitumor activity against human A549 cells xenografted in Kunming mouse model assessed as inhibition of tumor growth at 20 mg/kg, iv administered twice daily for 2 weeks relative to control", "assay_type": "functional", "conditions": "A549, 336 h"}, "A549 [16]": {"tested_on": "A549", "assay": "Antitumor activity against human A549 cells xenografted in zebrafish model assessed as reduction in tumor focal area at 2.5 uM relative to control", "assay_type": "functional", "parameters": "scale not given: the % may be the effect or the level left"}, "KYSE-450": {"tested_on": "KYSE-450", "assay": "Antitumor activity against human KYSE-450 cells xenografted in nu/nu nude mouse model assessed as inhibition of tumor growth at 25 mg/kg, ip administered every day for 15 days relative to control", "assay_type": "functional", "conditions": "KYSE-450, 360 h, time 15 day"}, "NCI-H1650": {"tested_on": "NCI-H1650", "assay": "Antiproliferative activity against drug-sensitive human NCI-H1650 cells assessed as inhibition of cell growth incubated for 48 hrs by MTT assay", "assay_type": "functional, cell-based", "conditions": "NCI-H1650, 48 h, pooled result: one value given for 9 cell lines, strains, targets or settings"}, "MDA-MB-435 [17]": {"tested_on": "MDA-MB-435", "assay": "Antitumor activity against GFP tagged bone metastatic variant of human MDA-MB-435 cells xenografted in athymic nu/nu mouse assessed as reduction in tumor growth at 10 mg/kg, ip administered thrice a week for 65 days relative to control", "assay_type": "functional", "parameters": "scale not given: the % may be the effect or the level left", "conditions": "time 65 day"}, "MDA-MB-231 [18]": {"tested_on": "MDA-MB-231", "assay": "Antiproliferative activity against human MDA-MB-231 cells assessed as inhibition of cell growth incubated for 120 hrs by MTT assay", "assay_type": "functional"}, "MDA-MB-435 [19]": {"tested_on": "MDA-MB-435", "assay": "Antitumor activity against GFP tagged bone metastatic variant of human MDA-MB-435 cells xenografted in athymic nu/nu mouse assessed as reduction in tumor growth at 1 mg/kg, ip administered thrice a week for 65 days relative to control", "assay_type": "functional", "parameters": "scale not given: the % may be the effect or the level left", "conditions": "time 65 day"}, "[20]": {"assay": "Inhibition of Rac activation in human MDA-MB-231 cells treated for 24 hrs by Western blot analysis", "assay_type": "cell-based"}},
  "data": [
    {"smiles": "COCCOc1cc2ncnc(Nc3cccc(-c4cn(Cc5cc(Br)cc(Br)c5)nn4)c3)c2cc1OCCOC", "values": [
      {"measurement": "IC50", "setting": "NCI-H460", "result": 3310, "unit": "nM"},
      {"measurement": "IC50", "setting": "NCI-H1975", "result": 3310, "unit": "nM"},
      {"measurement": "IC50", "setting": "PC-9 [1]", "result": 3310, "unit": "nM"},
      {"measurement": "inhibition in vivo at 25 mg/kg", "setting": "PC-9 [2]", "result": 90, "unit": "%"},
      {"measurement": "inhibition in vivo at 25 mg/kg", "setting": "4T1", "result": 64, "unit": "%"},
      {"measurement": "IC50", "setting": "A549 [3]", "result": 3310, "unit": "nM"}
    ]},
    {"smiles": "C/C(=C(/Cl)c1ccccc1)c1nnc(-c2cn(CCCOc3ccc(C(C)(C)C)cc3)nn2)o1", "values": [
      {"measurement": "inhibition in vivo at 20 mg/kg", "setting": "B16-F10", "result": 90, "unit": "%"}
    ]},
    {"smiles": "Cc1nnn(C)c1-c1cnc2c3cc4cnn(C)c4cc3n([C@H](c3ccccc3)C3CCOCC3)c2c1", "values": [
      {"measurement": "IC50", "setting": "NCI-H211", "result": 1.99, "unit": "nM"},
      {"measurement": "IC50", "setting": "MDA-MB-231 [4]", "result": 1.58, "unit": "nM"}
    ]},
    {"smiles": "CCN1CCN(Cc2ccc(Nc3ncc(F)c(-c4cc(F)c5nc(C)n(C(C)C)c5c4)n3)nc2)CC1", "note": "[ABEMACICLIB]", "values": [
      {"measurement": "IC50", "setting": "MDA-MB-231 [5]", "result": 153, "unit": "nM"},
      {"measurement": "IC50", "setting": "SK-BR-3", "result": 153, "unit": "nM"},
      {"measurement": "IC50", "setting": "MCF7 [6]", "result": 153, "unit": "nM"},
      {"measurement": "IC50", "setting": "[7]", "result": 153, "unit": "nM"},
      {"measurement": "clearance", "setting": "[8]", "result": 43, "unit": "mL/min/kg"},
      {"measurement": "IC50", "setting": "[9]", "result": 153, "unit": "nM"},
      {"measurement": "IC50", "setting": "BT-474", "result": 153, "unit": "nM"},
      {"measurement": "half-life", "setting": "[10]", "result": 1, "unit": "h"},
      {"measurement": "AUC(0-t)", "setting": "[11]", "result": 487, "unit": "ng·h/mL"},
      {"measurement": "T/C", "setting": "MCF7 [12]", "result": 0.51}
    ]},
    {"smiles": "COc1cc2c(c(OC)c1OC)-c1ccc(OC)c(=O)cc1[C@@H](NC(C)=O)CC2", "note": "[COLCHICINE]", "values": [
      {"measurement": "IC50", "setting": "SGC-7901 [13]", "result": 43, "unit": "nM"},
      {"measurement": "IC50", "setting": "A549 [3]", "result": 43, "unit": "nM"}
    ]},
    {"smiles": "C#Cc1cccc(Nc2ncnc3cc(OCCOC)c(OCCOC)cc23)c1", "note": "[ERLOTINIB]", "values": [
      {"measurement": "inhibition in vivo at 25 mg/kg", "setting": "PC-9 [2]", "result": 90, "unit": "%"},
      {"measurement": "inhibition in vivo at 25 mg/kg", "setting": "4T1", "result": 36, "unit": "%"}
    ]},
    {"smiles": "Cc1nnn(C)c1-c1cnc2c3ccc(C(C)(C)O)cc3n([C@H](c3ccccc3)C3CCOCC3)c2c1", "note": "[EZOBRESIB]", "values": [
      {"measurement": "IC50", "setting": "NCI-H211", "result": 6.57, "unit": "nM"},
      {"measurement": "IC50", "setting": "MDA-MB-231 [4]", "result": 4.97, "unit": "nM"}
    ]},
    {"smiles": "O=c1[nH]cc(F)c(=O)[nH]1", "note": "[FLUOROURACIL]", "values": [
      {"measurement": "IC50", "setting": "SGC-7901 [14]", "result": 26300, "unit": "nM"},
      {"measurement": "IC50", "setting": "KYSE-150 cell line", "result": 7730, "unit": "nM"},
      {"measurement": "inhibition in vivo at 20 mg/kg", "setting": "A549 [15]", "result": 64.7, "unit": "%"}
    ]},
    {"smiles": "COc1cc2ncnc(Nc3ccc(F)c(Cl)c3)c2cc1OCCCN1CCOCC1", "note": "[GEFITINIB]", "values": [
      {"measurement": "Activity", "setting": "A549 [16]", "result": 18.95, "unit": "%"}
    ]},
    {"smiles": "C#Cc1cccc(Nc2ncnc3cc4c(cc23)OCCOCCOCCO4)c1", "note": "[ICOTINIB]", "values": [
      {"measurement": "inhibition in vivo at 25 mg/kg", "setting": "KYSE-450", "result": 15, "unit": "%"},
      {"measurement": "IC50", "setting": "NCI-H1650", "result": "> 19200", "unit": "nM"}
    ]},
    {"smiles": "CCn1c2ccccc2c2cc(-n3nncc3-c3ccccc3)ccc21", "note": "[MBQ-167]", "values": [
      {"measurement": "Activity", "setting": "MDA-MB-435 [17]", "result": 95, "unit": "%"},
      {"measurement": "GI50", "setting": "MDA-MB-231 [18]", "result": 130, "unit": "nM"},
      {"measurement": "Activity", "setting": "MDA-MB-435 [19]", "result": 80, "unit": "%"},
      {"measurement": "IC50", "setting": "[20]", "result": 103, "unit": "nM"}
    ]}
  ]
}
